Residues, ends and D or L forms follow the SMILES beside them. *: point of attachment. Cbz = O=C(OCc1ccccc1)*; CH2F = FC*
Experiments:
rat islets = experiment: Viability of encapsulated rat islets after overnight culture; assay type: cell-based; details: nicotinamide 10 mM, Z-VAD.fmk 40 μM
Protocol: Transplantation of islets microencapsulated within a membrane-mimetic barrier. Evaluation of cell viability. Initial experiments used CHO cells as a readily available model system to assess cell viability after encapsulation. Cells were suspended into alginate solution at 6×10^6 cells/mL and then coated with a photopolymerized membrane-mimetic lipid film. Cell viability of >95% at 24 and 48 hours was confirmed using a Live/Dead cell assay (Molecular Probes, Inc.). In the next phase of this effort, we determined the viability of encapsulated rat islets (103). Rat islets were isolated from outbred male Wistar rats and suspended at a concentration of 1000 islets in 0.25 mL of 2% alginate (UP LVM, Pronova Biomedical, Norway). Alginate encapsulated islets were coated with a membrane-mimetic film and after overnight culture viability was graded with respect to the proportion of viable cells within a given islet.

[1] = biotin binding sites; cited from earlier work
Factor V = details: cited from earlier work
[2] = system: islet-induced coagulation; details: ex vivo model; cited from earlier work
[3] = systemic; cited from earlier work
[4] = CD39 ADPase activity kinetics (inorganic phosphate release); assay type: biochemical; details: substrate ADP 50-1500 μM; vesicles: molar ratio CD39:POPC 1:33,613
Description: (§1) We have expressed and purified human CD39 from Pichia pastoris and confirmed both ecto-ATPase and ecto-ADPase activity. […] Briefly, the plasmid carrying the CD39 human coding sequence was provided by Dr. Simon C. Robson (Harvard Medical School, USA). Polymerase chain reaction (PCR) was utilized to add a Kozak sequence flanked by EcoRI to the […] of CD39 and a FLAG tag flanked by XbaI to the 3′ end of CD39. The construct was harbored in pCR 2.1-TOPO (Invitrogen, San Diego, Calif.) and multiplied in One Shot Top10 (Invitrogen). To express CD39 in yeast, the EcoRI/XbaI digestion product was cloned into pPICZ (Invitrogen) and transformed into Pichia pastoris strain SMD1168 (Invitrogen). The expression construct was confirmed through DNA sequencing analysis. P. pastoris cultures were grown at 30° C. and expression induced for 4 days with 0.5% methanol. Cells were harvested, resuspended in breaking buffer, and cell lysates centrifuged to separate membrane and soluble fractions. […] CD39 was extracted from membrane fractions using 1% Igepal CA-630 and purified on anti-FLAG M2 affinity columns (Sigma, Saint Louis, Mo.). Kinetic parameters were measured for both detergent-solubilized CD39 and for protein reconstituted in POPC lipid vesicles at varying molar ratios of CD39 to lipid (1:85,714, 1:33,613, 1:16,806). […] Inorganic phosphate was measured as described by Ames (116). […]

[5] = CD39 ATPase activity kinetics (inorganic phosphate release); assay type: biochemical; details: substrate ATP 50-1500 μM; vesicles: molar ratio CD39:POPC 1:33,613
Description: as §1

For `COC(=O)C[C@H](NC(=O)[C@H](C)NC(=O)[C@@H](NC(=O)OCc1ccccc1)C(C)C)C(=O)CF` [Z-VAD.fmk] (Cbz-Val-Ala-Asp(OMe)-CH2F), the “effect of anti-apoptotic agent on islet viability” value (rat islets) was “important adjuncts for maximizing islet viability”.

With `NC(=O)c1cccnc1` [nicotinamide] the “effect of anti-apoptotic agent on islet viability” value (rat islets) was “important adjuncts for maximizing islet viability”.

For “avidin: biotin binding protein with four biotin binding sites”, the “binding affinity (log)” value [1] is given as greater than 15.

For heparin, the “enhancement of APC's ability to inactivate Factor V” value (Factor V) is listed as “four-fold”, the “concentration that prevented islet-induced coagulation” value [2] is listed as 4 U/mL blood and the half-life [3] is listed as “one hour”.

B1: Free CD39: detergent-solubilized human CD39 expressed in Pichia pastoris, FLAG tagged (protein, UniProt P49961 1-510, looked up)
Ectonucleoside triphosphate …: MEDTKESNVKTFCSKNILAILGFSSIIAVIALLAVGLTQNKALPENVKYGIVLDAGSSHTSLYIYKWPAEKENDTGVVHQVEECRVKGPGISKFVQKVNEIGIYLTDCMERAREVIPRSQHQETPVYLGATAGMRLLRMESEELADRVLDVVERSLSNYPFDFQGARIITGQEEGAYGWITINYLLGKFSQKTRWFSIVPYETNNQETFGALDLGGASTQVTFVPQNQTIESPDNALQFRLYGKDYNVYTHSFLCYGKDQALWQKLAKDIQVASNEILRDPCFHPGYKKVVNVSDLYKTPCTKRFEMTLPFQQFEIQGIGNYQQCHQSILELFNTSYCPYSQCAFNGIFLPPLQGDFGAFSAFYFVMKFLNLTSEKVSQEKVTEMMKKFCAQPWEEIKTSYAGVKEKYLSEYCFSGTYILSLLLQGYHFTADSWEHIHFIGKIQGSDAGWTLGYMLNLTNMIPAEQPLSTPLSHSTYVFLMVLFSLVLFTVAIIGLLIFHKPSYFWKDMV
modifications: FLAG tag
notes: detergent-solubilized human CD39 expressed in Pichia pastoris, FLAG tagged
Molecule B1 has a Km [4] of 45.8 µM and a Km [5] of 58.5 µM.

From patent publication US7824672B2, “Method for coating living cells” (Emory University, priority 2004, dated 2010)
